We go through 1 compound from paper PMC11172460 (International Journal of Molecular Sciences, 2024).

The nature of data set [1]: Hydrolysis kinetics in rat brain homogenates. It counts as in vitro ADME. The note with it: within 3 h, 37 °C, 30 µM. How it is done:
Brains were obtained from male Wistar rats, which were sacrificed by decapitation after a slight isoflurane anesthesia. The brains were immediately separated and homogenized in 5 volumes (w/v) of Tris HCl (50 mM, pH 7.4, 4 °C) using an ultra-Turrax (IKA Werke GmbH & Co. KG, Staufen, Germany) with 3 × 15 s bursts. After centrifugation of the homogenate (3000× g for 15 min at 4 °C), the supernatant was isolated and stored at −80 °C until its use for in vitro kinetic studies. The Lowry procedure was adopted to quantify the total protein concentration in the brain homogenate, resulting in 7.4 ± 0.4 μg protein/μL.
Kinetic analysis of Fer-Ger was performed by its incubation at 37 °C in 3 mL of rat liver or brain homogenates at 30 µM (9.92 µg/mL) final concentration. At defined time intervals, 100 μL of homogenates were withdrawn and immediately treated by quenching them in EtOH (250 µL), then an internal standard (100 μM carbazole dissolved in EtOH, 50 µL) was added. […]
The Fer-Ger degradation in whole blood or homogenates was analyzed as exponential decay plots of its concentrations versus incubation time, and the related half-life values were obtained from the linear regression of the corresponding semi-logarithmic plots. The quality of the fits was evaluated by considering the correlation coefficients (r) and p values. […]
Fer-Ger and its hydrolysis product, Ger, were quantified by HPLC. […]

The test system of data set [2] is neuronal differentiated N2a cells. Description: MTT assay for evaluation of Fer-Ger toxicity. It counts as cell-based, mouse. The note with it: 1 h exposure. How it is done: N2a cells were seeded on T75 flasks and grown in Dulbecco’s Modified Eagle Medium (DMEM) containing Glutamax, supplemented with 100 μg/mL streptomycin, 100 IU/mL penicillin, and 10% fetal bovine serum (FBS) in a humidified 5% CO2 atmosphere at 37 °C. After two passages by trypsinization, cells were seeded at a density of 5 × 10^3 cells/well in 12-well plates with 2 mL of DMEM or at a density of 5 × 10^2 cells/well in 96-well plates with 0.2 mL of DMEM, depending on the study (see below). […]
The potential neurotoxicity of Fer-Ger in N2a differentiated cells, seeded at a density of 5 × 10^2 cells/well in a 96-well plate as reported above, was assayed with the 3-(4,5-dimethylthiazol-2-yl)-2,5-diphenyltetrazolium (MTT) test after incubation for 1 h at 37 °C in a humidified 5% of CO2 atmosphere at 37 °C with increasing concentrations (1, 5, 10, 40, 70, 100 µM) of Fer-Ger dissolved in 0.2 mL of DPBS, supplemented with 0.9 mM CaCl2, 0.5 mM MgCl2, 5.3 mM glucose, and 0.1% BSA to ensure the solubilization of the compound in aqueous media. […] Finally, the absorbance of each well was measured at 570 nm using a microtiter plate reader (Sunrise® Microplate Reader, Tecan Trading AG, Männedorf, Switzerland). The values were expressed as cell vitality percentages with respect to control in the absence of compounds. […]

The next data set is described as follows: Solubility measurements. It counts as physicochemical. The note with it: 25 °C, thermodynamic from solid. How it is done: Solubility measurements of pure Fer-Ger were performed by adding an excess amount of Fer-Ger (about 10 mg) in 5 mL of pure water, DPBS, or a mixture made of DPBS and methanol (70:30 v/v) at 25 °C. The samples were magnetically stirred for 48 h. The supernatant was filtered through a 0.45 μm regenerate-cellulose membrane filter, and 10 µL of the filtered samples were injected into the HPLC-DAD system for Fer-Ger quantification. The study was performed in triplicate.

The structures appear in SMILES notation. Values after ≈ are worked out from the molar mass of the structure shown. Values joined by “and” are separate entries in the source; they are usually repeats but may differ in a detail not shown here. Identical values can stand only once. Like-named read-outs stand apart in the source and are kept apart here.

`COc1cc(/C=C/C(=O)OC/C=C(\C)CCC=C(C)C)ccc1O` [Fer-Ger, Geranyl ferulate]: the hydrolysis / stability entry in data set [1] was “total absence of hydrolysis processes”. For the same compound, the “concentration at which neurotoxic effect starts” value in data set [2] (p < 0.05 vs untreated cells) was found to be 40 µM. Also, the IC50 in data set [2] (Mus musculus, neuronal differentiated N2a cells, read-out: IC50 value of cell viability) was determined as 84.09 ± 0.26 µM. The solubility at 48 h in the data set “Solubility measurements” (DPBS, aqueous buffer, read-out: solubility in DPBS) is 0.24 ± 0.01 µg/mL (≈ 0.726 µM); in the data set “Solubility measurements” (DPBS/methanol 70:30 v/v, aqueous with cosolvent or surfactant or cyclodextrin, DPBS and MeOH 70:30 v/v, read-out: solubility in mixture of DPBS and MeOH), 8.1 ± 0.3 µg/mL (≈ 24.5 µM); in the data set “Solubility measurements” (pure water, water, read-out: water solubility) it was 0.26 µg/mL and 0.77 µM.
